Laboratory results taken from patent US12486253B2, “Therapeutics for the degradation of mutant BRAF” (C4 THERAPEUTICS, INC., priority 2021, dated 2025).
Like-named read-outs stand apart in the source and are kept apart here.

Target: BRAF V600E (Homo sapiens, UniProt P15056, V600E)
Test: HiBiT cellular BRAF^V600E degradation assay
Type: cell-based
Details: for DC50: concentration at which 50% of total cellular BRAF^V600E is degraded; for Emax: read-out: HiBit 24 h Emax
[1] = A375.10 cells, 24 h, residual protein remaining in the cell

Sequence of BRAF V600E (P15056 whole entry V600E): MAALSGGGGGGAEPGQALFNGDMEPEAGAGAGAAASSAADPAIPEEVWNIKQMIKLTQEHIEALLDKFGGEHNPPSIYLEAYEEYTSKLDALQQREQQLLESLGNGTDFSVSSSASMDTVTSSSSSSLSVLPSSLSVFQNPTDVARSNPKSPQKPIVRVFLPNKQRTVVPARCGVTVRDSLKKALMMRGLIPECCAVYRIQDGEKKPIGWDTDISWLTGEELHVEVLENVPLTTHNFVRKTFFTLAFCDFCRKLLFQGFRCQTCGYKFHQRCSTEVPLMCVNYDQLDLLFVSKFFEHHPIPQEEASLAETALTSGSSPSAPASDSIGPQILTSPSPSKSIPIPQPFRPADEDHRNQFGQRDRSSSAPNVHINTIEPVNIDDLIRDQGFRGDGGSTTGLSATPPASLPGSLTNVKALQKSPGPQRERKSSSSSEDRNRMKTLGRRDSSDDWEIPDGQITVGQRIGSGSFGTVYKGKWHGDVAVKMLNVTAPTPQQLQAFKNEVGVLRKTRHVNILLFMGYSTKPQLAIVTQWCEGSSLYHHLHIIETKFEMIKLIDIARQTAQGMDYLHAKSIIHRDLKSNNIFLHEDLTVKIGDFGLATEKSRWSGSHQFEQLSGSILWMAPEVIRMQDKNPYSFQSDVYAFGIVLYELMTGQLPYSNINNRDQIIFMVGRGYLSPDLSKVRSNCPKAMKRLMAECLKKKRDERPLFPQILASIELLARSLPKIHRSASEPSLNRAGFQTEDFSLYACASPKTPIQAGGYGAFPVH

Structure (SMILES)	DC50 (A375.10 cells, 24 h) [µM]	Emax [1] [%]	Emax [%]
CCN(C)S(=O)(=O)Nc1ccc(F)c(Oc2ccc3ncn([C@H]4COC5(CCN(C(=O)CC6CCN(c7cc8c(cc7F)c(N7CCC(=O)NC7=O)nn8C)CC6)CC5)C4)c(=O)c3c2)c1C#N [Example 180, (3R)-3-[6-[2-cyano-3-[[ethyl(methyl)sulfamoyl]amino]-6-fluorophenoxy]-4-oxoquinazolin-3-yl]-8-[2-[1-[3-(2,4-dioxo-1,3-diazinan-1-yl)-5-fluoro-1-methylindazol-6-yl]piperidin-4-yl]acetyl]-1-oxa-8-azaspiro[4.5]decane]	0.00962	–	20.6
Cn1nc(N2CCC(=O)NC2=O)c2cc(F)c(N3CCC(O)(CC(=O)N4CCC5(CC4)C[C@@H](n4cnc6ccc(Oc7c(F)ccc(NS(=O)(=O)N8CCCCC8)c7C#N)cc6c4=O)CO5)CC3)cc21 [Example 187, N-[2-cyano-3-[3-[(3R)-8-[2-[1-[3-(2,4-dioxo-1,3-diazinan-1-yl)-5-fluoro-1-methylindazol-6-yl]-4-hydroxypiperidin-4-yl]acetyl]-1-oxa-8-azaspiro[4.5]decan-3-yl]-4-oxoquinazolin-6-yl]oxy-4-fluorophenyl]piperidine-1-sulfonamide]	0.0387	24.1	–
Cn1nc(N2CCC(=O)NC2=O)c2cc(F)c(N3CCC(O)(CC(=O)N4CCC5(CC4)C[C@@H](n4cnc6ccc(Oc7c(F)ccc(NS(=O)(=O)C8CCCCC8)c7C#N)cc6c4=O)CO5)CC3)cc21 [Example 188, N-[2-cyano-3-[3-[(3R)-8-[2-[1-[3-(2,4-dioxo-1,3-diazinan-1-yl)-5-fluoro-1-methylindazol-6-yl]-4-hydroxypiperidin-4-yl]acetyl]-1-oxa-8-azaspiro[4.5]decan-3-yl]-4-oxoquinazolin-6-yl]oxy-4-fluorophenyl]cyclohexanesulfonamide]	0.0406	–	27.3
Cn1nc(N2CCC(=O)NC2=O)c2cc(F)c(N3CCC(O)(CC(=O)N4CCC5(CC4)C[C@@H](n4cnc6ccc(Oc7c(F)ccc(NS(=O)(=O)N8CC[C@@H](F)C8)c7C#N)cc6c4=O)CO5)CC3)cc21 [Example 190, (3R)—N-[2-cyano-3-[3-[(3R)-8-[2-[1-[3-(2,4-dioxo-1,3-diazinan-1-yl)-5-fluoro-1-methylindazol-6-yl]-4-hydroxypiperidin-4-yl]acetyl]-1-oxa-8-azaspiro[4.5]decan-3-yl]-4-oxoquinazolin-6-yl]oxy-4-fluorophenyl]-3-fluoropyrrolidine-1-sulfonamide]	0.0393	24.7	–
Cn1nc(N2CCC(=O)NC2=O)c2cc(F)c(N3CCC(O)(CC(=O)N4CCC5(CC4)C[C@@H](n4cnc6ccc(Oc7c(F)ccc(NS(=O)(=O)C8CC8)c7C#N)cc6c4=O)CO5)CC3)cc21 [Example 192, N-[2-cyano-3-[3-[(3R)-8-[2-[1-[3-(2,4-dioxo-1,3-diazinan-1-yl)-5-fluoro-1-methylindazol-6-yl]-4-hydroxypiperidin-4-yl]acetyl]-1-oxa-8-azaspiro[4.5]decan-3-yl]-4-oxoquinazolin-6-yl]oxy-4-fluorophenyl]cyclopropanesulfonamide]	0.0317	32.2	–
COC1CN(S(=O)(=O)Nc2ccc(F)c(Oc3ccc4ncn([C@H]5COC6(CCN(C(=O)CC7(O)CCN(c8cc9c(cc8F)c(N8CCC(=O)NC8=O)nn9C)CC7)CC6)C5)c(=O)c4c3)c2C#N)C1 [Example 193, N-[2-cyano-3-[3-[(3R)-8-[2-[1-[3-(2,4-dioxo-1,3-diazinan-1-yl)-5-fluoro-1-methylindazol-6-yl]-4-hydroxypiperidin-4-yl]acetyl]-1-oxa-8-azaspiro[4.5]decan-3-yl]-4-oxoquinazolin-6-yl]oxy-4-fluorophenyl]-3-methoxyazetidine-1-sulfonamide]	0.142	33.8	–
Cn1nc(N2CCC(=O)NC2=O)c2cc(F)c(N3CCC(O)(CC(=O)N4CCC5(CC4)C[C@@H](n4cnc6ccc(Oc7c(F)ccc(NS(=O)(=O)N8CC9CC9C8)c7C#N)cc6c4=O)CO5)CC3)cc21 (stereo partly drawn) [Example 194, N-[2-cyano-3-[3-[(3R)-8-[2-[1-[3-(2,4-dioxo-1,3-diazinan-1-yl)-5-fluoro-1-methylindazol-6-yl]-4-hydroxypiperidin-4-yl]acetyl]-1-oxa-8-azaspiro[4.5]decan-3-yl]-4-oxoquinazolin-6-yl]oxy-4-fluorophenyl]-3-azabicyclo[3.1.0]hexane-3-sulfonamide]	0.0428	26.2	–
Cn1nc(N2CCC(=O)NC2=O)c2cc(F)c(N3CCC(O)(CC(=O)N4CCC5(CC4)C[C@@H](n4cnc6ccc(Oc7c(F)ccc(NS(=O)(=O)N8CCC8)c7C#N)cc6c4=O)CO5)CC3)cc21 [Example 196, N-[2-cyano-3-[3-[(3R)-8-[2-[1-[3-(2,4-dioxo-1,3-diazinan-1-yl)-5-fluoro-1-methylindazol-6-yl]-4-hydroxypiperidin-4-yl]acetyl]-1-oxa-8-azaspiro[4.5]decan-3-yl]-4-oxoquinazolin-6-yl]oxy-4-fluorophenyl]azetidine-1-sulfonamide]	9.99	89.4	–

Continued, in another order:

DC50 (A375.10 cells, 24 h) [µM]	Emax [1] [%]	Structure (SMILES)	Emax [%]
0.0278	19.3	CCN(C)S(=O)(=O)Nc1ccc(F)c(Oc2ccc3ncn(C4COC5(CCN(C(=O)CC6(O)CCN(c7cc8c(cc7F)c(N7CCC(=O)NC7=O)nn8C)CC6)CC5)C4)c(=O)c3c2N(C)C)c1C#N (centres unmarked) [Example 179, 3-[6-[2-cyano-3-[[ethyl(methyl)sulfamoyl]amino]-6-fluorophenoxy]-5-(dimethylamino)-4-oxoquinazolin-3-yl]-8-[2-[1-[3-(2,4-dioxo-1,3-diazinan-1-yl)-5-fluoro-1-methylindazol-6-yl]-4-hydroxypiperidin-4-yl]acetyl]-1-oxa-8-azaspiro[4.5]decane]	–
0.0162	19.8	CCN(C)S(=O)(=O)Nc1ccc(F)c(Oc2ccc3ncn([C@H]4COC5(CCN(C(=O)CC6(O)CCN(c7cc8c(cc7F)c(N7CCC(=O)NC7=O)nn8C)CC6)CC5)C4)c(=O)c3c2N)c1C#N [Example 182, (3R)-3-[5-amino-6-[2-cyano-3-[[ethyl(methyl)sulfamoyl]amino]-6-fluorophenoxy]-4-oxoquinazolin-3-yl]-8-[2-[1-[3-(2,4-dioxo-1,3-diazinan-1-yl)-5-fluoro-1-methylindazol-6-yl]-4-hydroxypiperidin-4-yl]acetyl]-1-oxa-8-azaspiro[4.5]decane]	–
0.0163	25.1	CCN(C)S(=O)(=O)Nc1ccc(F)c(Oc2ccc3ncn([C@H]4COC5(CCN(C(=O)CC6(O)CCN(c7cc8c(cc7F)c(N7CCC(=O)NC7=O)nn8C)CC6)CC5)C4)c(=O)c3c2O)c1C#N [Example 186, (3R)-3-[6-[2-cyano-3-[[ethyl(methyl)sulfamoyl]amino]-6-fluorophenoxy]-5-hydroxy-4-oxoquinazolin-3-yl]-8-[2-[1-[3-(2,4-dioxo-1,3-diazinan-1-yl)-5-fluoro-1-methylindazol-6-yl]-4-hydroxypiperidin-4-yl]acetyl]-1-oxa-8-azaspiro[4.5]decane]	–
0.0235	24.5	CC(C)S(=O)(=O)Nc1ccc(F)c(Oc2ccc3ncn([C@H]4COC5(CCN(C(=O)CC6(O)CCN(c7cc8c(cc7F)c(N7CCC(=O)NC7=O)nn8C)CC6)CC5)C4)c(=O)c3c2)c1C#N [Example 189, N-[2-cyano-3-[3-[(3R)-8-[2-[1-[3-(2,4-dioxo-1,3-diazinan-1-yl)-5-fluoro-1-methylindazol-6-yl]-4-hydroxypiperidin-4-yl]acetyl]-1-oxa-8-azaspiro[4.5]decan-3-yl]-4-oxoquinazolin-6-yl]oxy-4-fluorophenyl]propane-2-sulfonamide]	–
0.0271	26.8	Cn1nc(N2CCC(=O)NC2=O)c2cc(F)c(N3CCC(O)(CC(=O)N4CCC5(CC4)C[C@@H](n4cnc6ccc(Oc7c(F)ccc(NS(=O)(=O)C8CCCC8)c7C#N)cc6c4=O)CO5)CC3)cc21 [Example 191, N-[2-cyano-3-[3-[(3R)-8-[2-[1-[3-(2,4-dioxo-1,3-diazinan-1-yl)-5-fluoro-1-methylindazol-6-yl]-4-hydroxypiperidin-4-yl]acetyl]-1-oxa-8-azaspiro[4.5]decan-3-yl]-4-oxoquinazolin-6-yl]oxy-4-fluorophenyl]cyclopentanesulfonamide]	–
0.016	26.3	Cn1nc(N2CCC(=O)NC2=O)c2cc(F)c(N3CCC(O)(CC(=O)N4CCC5(CC4)C[C@@H](n4cnc6ccc(Oc7c(F)ccc(NS(=O)(=O)N8CCCC8)c7C#N)cc6c4=O)CO5)CC3)cc21 [Example 195, N-[2-cyano-3-[3-[(3R)-8-[2-[1-[3-(2,4-dioxo-1,3-diazinan-1-yl)-5-fluoro-1-methylindazol-6-yl]-4-hydroxypiperidin-4-yl]acetyl]-1-oxa-8-azaspiro[4.5]decan-3-yl]-4-oxoquinazolin-6-yl]oxy-4-fluorophenyl]pyrrolidine-1-sulfonamide]	–
0.0257	27.8	CN(C1CC1)S(=O)(=O)Nc1ccc(F)c(Oc2ccc3ncn([C@H]4COC5(CCN(C(=O)CC6(O)CCN(c7cc8c(cc7F)c(N7CCC(=O)NC7=O)nn8C)CC6)CC5)C4)c(=O)c3c2)c1C#N [Example 197, (3R)-3-[6-[2-cyano-3-[[cyclopropyl(methyl)sulfamoyl]amino]-6-fluorophenoxy]-4-oxoquinazolin-3-yl]-8-[2-[1-[3-(2,4-dioxo-1,3-diazinan-1-yl)-5-fluoro-1-methylindazol-6-yl]-4-hydroxypiperidin-4-yl]acetyl]-1-oxa-8-azaspiro[4.5]decane]	–
0.0287	28.1	Cn1nc(N2CCC(=O)NC2=O)c2cc(F)c(N3CCC(O)(CC(=O)N4CCC5(CC4)C[C@@H](n4cnc6ccc(Oc7c(F)ccc(NS(=O)(=O)C8CCC8)c7C#N)cc6c4=O)CO5)CC3)cc21 [Example 198, N-[2-cyano-3-[3-[(3R)-8-[2-[1-[3-(2,4-dioxo-1,3-diazinan-1-yl)-5-fluoro-1-methylindazol-6-yl]-4-hydroxypiperidin-4-yl]acetyl]-1-oxa-8-azaspiro[4.5]decan-3-yl]-4-oxoquinazolin-6-yl]oxy-4-fluorophenyl]cyclobutanesulfonamide]	–
